Legend:
Test in all cases: relative viability (nuclei count vs DMSO), 5 days (fraction); higher = more cells survive
[1] = system: NCI-H3122
How it was run: (§1)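 Lung cancer cell lines in 1536-well plates were dosed by pin tool the day after seeding, either with one drug alone or with a fixed anchor-drug dose plus five library-drug doses (not always all listed) in √10 steps. After 5 days, cells were fixed and their nuclei stained in one step (final 0.05% Triton X-100, 1% formaldehyde, 1 ug/ml Hoechst), then counted on 4× images. Relative viability is the nuclei count in treated wells divided by that in vehicle wells. Values are medians of duplicate plates.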

[2] = system: ABC-1
How it was run: as §1

[3] = system: LXF-289
How it was run: as §1

[4] = system: PC-3 [JPC-3]
How it was run: as §1

[5] = system: NCI-H727
How it was run: as §1

[6] = system: EMC-BAC-2
How it was run: as §1

[7] = system: NCI-H1993
How it was run: as §1

[8] = system: NCI-H2228
How it was run: as §1

[9] = system: A-427
How it was run: as §1

[10] = system: HOP-62
How it was run: as §1

[11] = system: NCI-H2009
How it was run: as §1

[12] = system: NCI-H596
How it was run: as §1

[13] = system: NCI-H322M
How it was run: as §1

[14] = system: HARA
How it was run: as §1

[15] = system: SW 1573
How it was run: as §1

[16] = system: NCI-H1792
How it was run: as §1

[17] = system: NCI-H2170
How it was run: as §1

[18] = system: NCI-H1944
How it was run: as §1

[19] = system: LK-2
How it was run: as §1

[20] = system: SK-MES-1
How it was run: as §1

Structure (SMILES): Nc1ccn([C@@H]2O[C@H](CO)[C@@H](O)[C@@H]2O)c(=O)n1 [Cytarabine] + CC(C)C[C@H](NC(=O)[C@H](Cc1ccccc1)NC(=O)c1cnccn1)B(O)O [Bortezomib] (partner 0.002 µM)
- relative viability ([1]; first compound 0.005 µM): 0.932
- relative viability ([1]; first compound 0.01581 µM): 0.96
- relative viability ([1]; first compound 0.05 µM): 0.856
- relative viability ([1]; first compound 0.1581 µM): 0.676
- relative viability ([1]; first compound 0.5 µM): 0.614
- relative viability ([2]; first compound 0.005 µM): 0.307
- relative viability ([2]; first compound 0.01581 µM): 0.345
- relative viability ([2]; first compound 0.05 µM): 0.285
- relative viability ([2]; first compound 0.1581 µM): 0.233
- relative viability ([2]; first compound 0.5 µM): 0.29
- relative viability ([3]; first compound 0.005 µM): 0.887
- relative viability ([3]; first compound 0.01581 µM): 0.936
- relative viability ([3]; first compound 0.05 µM): 0.901
- relative viability ([3]; first compound 0.1581 µM): 0.474
- relative viability ([3]; first compound 0.5 µM): 0.258
- relative viability ([4]; first compound 0.005 µM): 0.811
- relative viability ([4]; first compound 0.01581 µM): 0.795
- relative viability ([4]; first compound 0.05 µM): 0.779
- relative viability ([4]; first compound 0.1581 µM): 0.503
- relative viability ([4]; first compound 0.5 µM): 0.511
- relative viability ([5]; first compound 0.005 µM): 0.524
- relative viability ([5]; first compound 0.01581 µM): 0.558
- relative viability ([5]; first compound 0.05 µM): 0.484
- relative viability ([5]; first compound 0.1581 µM): 0.334
- relative viability ([5]; first compound 0.5 µM): 0.315
- relative viability ([6]; first compound 0.005 µM): 1.03
- relative viability ([6]; first compound 0.01581 µM): 1.09
- relative viability ([6]; first compound 0.05 µM): 0.807
- relative viability ([6]; first compound 0.1581 µM): 0.254
- relative viability ([6]; first compound 0.5 µM): 0.229
- relative viability ([7]; first compound 0.005 µM): 1.1
- relative viability ([7]; first compound 0.01581 µM): 0.964
- relative viability ([7]; first compound 0.05 µM): 1
- relative viability ([7]; first compound 0.1581 µM): 0.768
- relative viability ([7]; first compound 0.5 µM): 0.62
- relative viability ([8]; first compound 0.005 µM): 0.791
- relative viability ([8]; first compound 0.01581 µM): 0.441
- relative viability ([8]; first compound 0.05 µM): 0.437
- relative viability ([8]; first compound 0.1581 µM): 0.197
- relative viability ([8]; first compound 0.5 µM): 0.156
- relative viability ([9]; first compound 0.005 µM): 0.752
- relative viability ([9]; first compound 0.01581 µM): 0.46
- relative viability ([9]; first compound 0.05 µM): 0.276
- relative viability ([9]; first compound 0.1581 µM): 0.171
- relative viability ([9]; first compound 0.5 µM): 0.166
- relative viability ([10]; first compound 0.005 µM): 0.58
- relative viability ([10]; first compound 0.01581 µM): 0.291
- relative viability ([10]; first compound 0.05 µM): 0.208
- relative viability ([10]; first compound 0.1581 µM): 0.174
- relative viability ([10]; first compound 0.5 µM): 0.0493
- relative viability ([11]; first compound 0.005 µM): 1.05
- relative viability ([11]; first compound 0.01581 µM): 1.03
- relative viability ([11]; first compound 0.05 µM): 0.952
- relative viability ([11]; first compound 0.1581 µM): 0.634
- relative viability ([11]; first compound 0.5 µM): 0.311
- relative viability ([12]; first compound 0.005 µM): 0.788
- relative viability ([12]; first compound 0.01581 µM): 0.853
- relative viability ([12]; first compound 0.05 µM): 0.904
- relative viability ([12]; first compound 0.1581 µM): 0.62
- relative viability ([12]; first compound 0.5 µM): 0.704
- relative viability ([13]; first compound 0.005 µM): 0.718
- relative viability ([13]; first compound 0.01581 µM): 1.01
- relative viability ([13]; first compound 0.05 µM): 0.717
- relative viability ([13]; first compound 0.1581 µM): 0.472
- relative viability ([13]; first compound 0.5 µM): 0.404
- relative viability ([14]; first compound 0.005 µM): 0.725
- relative viability ([14]; first compound 0.01581 µM): 0.642
- relative viability ([14]; first compound 0.05 µM): 0.652
- relative viability ([14]; first compound 0.1581 µM): 0.179
- relative viability ([14]; first compound 0.5 µM): 0.139
- relative viability ([15]; first compound 0.005 µM): 1.1
- relative viability ([15]; first compound 0.01581 µM): 0.847
- relative viability ([15]; first compound 0.05 µM): 0.675
- relative viability ([15]; first compound 0.1581 µM): 0.461
- relative viability ([15]; first compound 0.5 µM): 0.159
- relative viability ([16]; first compound 0.005 µM): 0.925
- relative viability ([16]; first compound 0.01581 µM): 0.93
- relative viability ([16]; first compound 0.05 µM): 0.795
- relative viability ([16]; first compound 0.1581 µM): 0.565
- relative viability ([16]; first compound 0.5 µM): 0.55

Structure (SMILES): CC(=O)O[C@@]12CO[C@@H]1C[C@H](O)[C@@]1(C)C(=O)[C@H](O)C3=C(C)[C@@H](OC(=O)[C@H](O)[C@@H](NC(=O)OC(C)(C)C)c4ccccc4)C[C@@](O)([C@@H](OC(=O)c4ccccc4)[C@H]21)C3(C)C [Docetaxel] + CC1(C)CCC(c2ccc(Cl)cc2)=C(CN2CCN(c3ccc(C(=O)NS(=O)(=O)c4ccc(N[C@H](CCN5CCOCC5)CSc5ccccc5)c(S(=O)(=O)C(F)(F)F)c4)cc3)CC2)C1 [Navitoclax] (partner 0.5 µM)
- relative viability ([1]; first compound 0.0002 µM): 0.996
- relative viability ([1]; first compound 0.000632 µM): 1
- relative viability ([1]; first compound 0.002 µM): 0.895
- relative viability ([1]; first compound 0.006325 µM): 0.376
- relative viability ([1]; first compound 0.02 µM): 0.168
- relative viability ([17]; first compound 0.0002 µM): 0.569
- relative viability ([17]; first compound 0.000632 µM): 0.49
- relative viability ([17]; first compound 0.002 µM): 0.237
- relative viability ([17]; first compound 0.006325 µM): 0.213
- relative viability ([17]; first compound 0.02 µM): 0.15
- relative viability ([3]; first compound 0.0002 µM): 0.96
- relative viability ([3]; first compound 0.000632 µM): 0.796
- relative viability ([3]; first compound 0.002 µM): 0.585
- relative viability ([3]; first compound 0.006325 µM): 0.142
- relative viability ([3]; first compound 0.02 µM): 0.0718
- relative viability ([4]; first compound 0.0002 µM): 0.82
- relative viability ([4]; first compound 0.000632 µM): 0.721
- relative viability ([4]; first compound 0.002 µM): 0.527
- relative viability ([4]; first compound 0.006325 µM): 0.229
- relative viability ([4]; first compound 0.02 µM): 0.202
- relative viability ([5]; first compound 0.0002 µM): 0.488
- relative viability ([5]; first compound 0.000632 µM): 0.442
- relative viability ([5]; first compound 0.002 µM): 0.308
- relative viability ([5]; first compound 0.02 µM): 0.149
- relative viability ([6]; first compound 0.0002 µM): 1.14
- relative viability ([6]; first compound 0.000632 µM): 1.11
- relative viability ([6]; first compound 0.002 µM): 0.735
- relative viability ([6]; first compound 0.006325 µM): 0.272
- relative viability ([6]; first compound 0.02 µM): 0.148
- relative viability ([7]; first compound 0.0002 µM): 0.945
- relative viability ([7]; first compound 0.000632 µM): 0.873
- relative viability ([7]; first compound 0.002 µM): 0.703
- relative viability ([7]; first compound 0.006325 µM): 0.554
- relative viability ([7]; first compound 0.02 µM): 0.436
- relative viability ([8]; first compound 0.0002 µM): 0.854
- relative viability ([8]; first compound 0.000632 µM): 0.35
- relative viability ([8]; first compound 0.002 µM): 0.156
- relative viability ([8]; first compound 0.006325 µM): 0.114
- relative viability ([8]; first compound 0.02 µM): 0.056
- relative viability ([18]; first compound 0.0002 µM): 1.07
- relative viability ([18]; first compound 0.000632 µM): 1.05
- relative viability ([18]; first compound 0.002 µM): 0.942
- relative viability ([18]; first compound 0.006325 µM): 0.297
- relative viability ([18]; first compound 0.02 µM): 0.155
- relative viability ([9]; first compound 0.0002 µM): 0.987
- relative viability ([9]; first compound 0.000632 µM): 0.926
- relative viability ([9]; first compound 0.002 µM): 0.641
- relative viability ([9]; first compound 0.006325 µM): 0.26
- relative viability ([9]; first compound 0.02 µM): 0.181
- relative viability ([10]; first compound 0.0002 µM): 0.878
- relative viability ([10]; first compound 0.000632 µM): 0.552
- relative viability ([10]; first compound 0.002 µM): 0.312
- relative viability ([10]; first compound 0.02 µM): 0.0795
- relative viability ([11]; first compound 0.0002 µM): 1.15
- relative viability ([11]; first compound 0.000632 µM): 1.19
- relative viability ([11]; first compound 0.002 µM): 0.892
- relative viability ([11]; first compound 0.006325 µM): 0.575
- relative viability ([11]; first compound 0.02 µM): 0.117
- relative viability ([12]; first compound 0.0002 µM): 0.882
- relative viability ([12]; first compound 0.000632 µM): 0.799
- relative viability ([12]; first compound 0.002 µM): 0.565
- relative viability ([12]; first compound 0.006325 µM): 0.477
- relative viability ([12]; first compound 0.02 µM): 0.208
- relative viability ([19]; first compound 0.0002 µM): 0.805
- relative viability ([19]; first compound 0.000632 µM): 0.556
- relative viability ([19]; first compound 0.002 µM): 0.172
- relative viability ([19]; first compound 0.006325 µM): 0.133
- relative viability ([19]; first compound 0.02 µM): 0.145
- relative viability ([13]; first compound 0.0002 µM): 1.14
- relative viability ([13]; first compound 0.000632 µM): 1.13
- relative viability ([13]; first compound 0.002 µM): 0.962
- relative viability ([13]; first compound 0.006325 µM): 0.511
- relative viability ([13]; first compound 0.02 µM): 0.306
- relative viability ([20]; first compound 0.0002 µM): 1.19
- relative viability ([20]; first compound 0.000632 µM): 0.692
- relative viability ([20]; first compound 0.002 µM): 0.251
- relative viability ([20]; first compound 0.006325 µM): 0.122
- relative viability ([20]; first compound 0.02 µM): 0.108
- relative viability ([14]; first compound 0.0002 µM): 1.08
- relative viability ([14]; first compound 0.000632 µM): 0.912
- relative viability ([14]; first compound 0.002 µM): 0.156
- relative viability ([14]; first compound 0.006325 µM): 0.107
- relative viability ([14]; first compound 0.02 µM): 0.0621
- relative viability ([15]; first compound 0.0002 µM): 1.06
- relative viability ([15]; first compound 0.000632 µM): 0.204
- relative viability ([15]; first compound 0.002 µM): 0.15
- relative viability ([15]; first compound 0.006325 µM): 0.0763
- relative viability ([15]; first compound 0.02 µM): 0.0456
- relative viability ([16]; first compound 0.0002 µM): 0.441
- relative viability ([16]; first compound 0.000632 µM): 0.614
- relative viability ([16]; first compound 0.002 µM): 0.437
- relative viability ([16]; first compound 0.02 µM): 0.0744

From the supplement of paper PMC10307832
